Reference: ChEMBL document CHEMBL1150696, “Griffonianone D, an isoflavone with anti-inflammatory activity from the root bark of Millettia griffoniana” (2003)
The source made the active and inactive calls. The rule behind the calls is not given here.

Assays:
Mus musculus [1] = assay: Antiinflammatory activity against PLA2-induced Swiss mouse paw edema at 5 mg/kg, ip administered 30 mins before PLA2 challenge; type: functional; details: route intraperitoneal
Mus musculus [2] = assay: Antiinflammatory activity against PLA2-induced Swiss mouse paw edema at 5 mg/kg, ip administered 30 mins before PLA2 challenge
[3] = target: T1, Polyunsaturated fatty acid 5-lipoxygenase (Rattus norvegicus) (UniProt P12527); assay: Inhibition of 5-lipoxygenase in rat leukocytes assessed as inhibition of calcium ionophore A-23187/calcium-stimulated LTB4 production; type: cell-based
T1 sequence (whole entry): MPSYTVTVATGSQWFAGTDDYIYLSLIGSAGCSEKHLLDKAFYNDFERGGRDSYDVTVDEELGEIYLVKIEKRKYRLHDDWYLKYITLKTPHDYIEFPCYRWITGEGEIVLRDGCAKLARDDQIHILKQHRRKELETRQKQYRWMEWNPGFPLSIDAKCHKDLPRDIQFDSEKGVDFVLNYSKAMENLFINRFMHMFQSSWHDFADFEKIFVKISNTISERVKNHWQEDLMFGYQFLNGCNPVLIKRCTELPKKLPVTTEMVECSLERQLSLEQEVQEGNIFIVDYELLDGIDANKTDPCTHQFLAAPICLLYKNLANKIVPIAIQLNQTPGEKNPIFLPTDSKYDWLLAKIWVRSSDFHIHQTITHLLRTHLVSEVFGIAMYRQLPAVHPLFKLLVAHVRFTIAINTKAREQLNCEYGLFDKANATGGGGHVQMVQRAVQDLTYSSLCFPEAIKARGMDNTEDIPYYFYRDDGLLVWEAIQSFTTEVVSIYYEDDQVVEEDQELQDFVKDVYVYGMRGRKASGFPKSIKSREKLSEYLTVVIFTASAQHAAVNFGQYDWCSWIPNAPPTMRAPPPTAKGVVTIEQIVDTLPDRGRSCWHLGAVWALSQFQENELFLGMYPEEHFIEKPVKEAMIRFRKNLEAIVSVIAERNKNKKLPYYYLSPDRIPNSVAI

Mus musculus [4] = assay: Antiinflammatory activity against TPA-induced Swiss mouse ear edema assessed as reduction in ear swelling at 0.25 mg/ear topically after 4 hrs relative to control; type: functional
Mus musculus [5] = assay: Antiinflammatory activity against PLA2-induced Swiss mouse paw edema at 5 mg/kg, ip administered 60 mins before PLA2 challenge; type: functional; details: route intraperitoneal
[6] = target: Prostaglandin G/H synthase 1 (Homo sapiens) (UniProt P23219); assay: Inhibition of cyclooxygenase 1 in human platelet assessed as 12-hydroxyheptadecatrienoic acid production
Mus musculus [7] = assay: Antiinflammatory activity against TPA-induced Swiss mouse ear edema assessed as reduction in ear swelling at 0.5 mg/ear topically after 4 hrs relative to control; type: functional
Mus musculus [8] = assay: Antiinflammatory activity against carrageenan-induced Swiss mouse paw edema at 10 mg/kg, po; type: functional

Prostaglandin G/H synthase 1 (Homo sapiens), sequence (P23219 whole entry): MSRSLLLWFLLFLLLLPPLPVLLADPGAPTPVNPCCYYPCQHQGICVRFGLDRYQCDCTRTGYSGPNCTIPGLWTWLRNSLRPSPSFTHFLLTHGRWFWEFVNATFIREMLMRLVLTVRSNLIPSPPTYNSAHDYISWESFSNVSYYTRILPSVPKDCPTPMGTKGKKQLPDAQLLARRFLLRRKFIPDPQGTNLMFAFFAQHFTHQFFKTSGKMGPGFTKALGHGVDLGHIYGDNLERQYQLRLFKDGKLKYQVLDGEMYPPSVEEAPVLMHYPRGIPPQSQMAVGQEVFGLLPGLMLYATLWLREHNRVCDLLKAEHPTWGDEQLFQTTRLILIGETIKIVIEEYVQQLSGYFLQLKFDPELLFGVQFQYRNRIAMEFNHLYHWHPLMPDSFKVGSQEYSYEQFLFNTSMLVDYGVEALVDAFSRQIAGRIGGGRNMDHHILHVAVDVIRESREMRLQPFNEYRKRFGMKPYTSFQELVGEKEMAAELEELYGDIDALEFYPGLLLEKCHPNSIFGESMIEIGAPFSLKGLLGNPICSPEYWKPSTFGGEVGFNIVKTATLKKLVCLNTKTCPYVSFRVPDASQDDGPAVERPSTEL

Activity [3] | Activity [6] | SMILES | inhibition in vivo at 5 mg/kg (Mus musculus [1]) [%] | inhibition in vivo at 5 mg/kg (Mus musculus [2]) [%] | inhibition (INH) (Mus musculus [4]) [%] | inhibition in vivo at 5 mg/kg (Mus musculus [5]) [%] | inhibition (INH) (Mus musculus [7]) [%] | inhibition in vivo at 10 mg/kg (Mus musculus [8]) [%]
 |  | CN1CCC(=C2c3ccccc3C=Cc3ccccc32)CC1 [CYPROHEPTADINE] | 82 | 82 |  |  |  | 
inactive | inactive | COc1ccc(-c2coc3cc(OC/C=C(\C)CCC(O)C(C)(C)O)ccc3c2=O)cc1 (centres undefined) [GRIFFONIANONE D] | 42 |  | 77 | 30 |  | 
 |  | COc1ccc2c(c1)c(CC(=O)O)c(C)n2C(=O)c1ccc(Cl)cc1 [INDOMETHACIN] |  |  |  |  | 82 | 60
